Laboratory results as given in paper PMC6766826, “Antiproliferative S-Trityl-L-Cysteine -Derived Compounds as SIRT2 Inhibitors: Repurposing and Solubility Enhancement” (Molecules, 2019).
Where a name gives a salt, the structure may show the parent alone. Blank lines part the entries; values can stand above or below the molecule they belong to.

Assays:
SIRT2 = target: T1, SIRT2 (Homo sapiens, UniProt Q8IXJ6); test: In vitro SIRT2 deacetylase inhibition, electrophoretic mobility shift assay; assay type: biochemical; conditions: for IC50: recombinant SIRT2, FAM-RHKK(Ac)LM peptide, 1 mM NAD, 60 min 37 °C, mean ± SD, read-out: IC50 against SIRT2; for SIRT2 inhibition activity (in words): in vitro
T1 sequence (Q8IXJ6 1-389): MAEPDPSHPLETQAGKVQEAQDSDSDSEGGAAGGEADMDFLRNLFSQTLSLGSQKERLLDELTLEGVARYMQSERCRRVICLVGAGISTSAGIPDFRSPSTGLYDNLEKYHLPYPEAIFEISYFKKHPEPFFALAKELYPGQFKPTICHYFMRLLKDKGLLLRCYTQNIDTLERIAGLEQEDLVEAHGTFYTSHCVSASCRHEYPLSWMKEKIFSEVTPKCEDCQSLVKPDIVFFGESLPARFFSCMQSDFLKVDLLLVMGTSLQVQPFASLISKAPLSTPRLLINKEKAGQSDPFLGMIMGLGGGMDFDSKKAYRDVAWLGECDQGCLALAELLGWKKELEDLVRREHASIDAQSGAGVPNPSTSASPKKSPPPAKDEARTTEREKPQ
Source text: The designs of the new STLC derivatives were based on TH-3 by conserving its trityl group, whereas the L-histidine moiety was replaced by L-cysteine. To obtain exhaustive structure–activity relationship (SAR) information, the amino group was reductively alkylated or acylated using different substituted aldehydes and acyl chlorides, respectively. The terminal methyl ester group was kept or converted to hydrazide (Figure 2). […] Two noncommercially available aldehydes, 4-(dimethylamino)picolinaldehyde and 4-(diethylamino)picolinaldehyde, were prepared as described previously. Thereafter, the in vitro SIRT2 inhibitory activities of these synthesized compounds were examined using electrophoretic mobility shift assays
Deacetylase activities of SIRT2 were measured with an electrophoretic mobility shift assay. […] After 60 min at 37 °C, the reaction was stopped by adding nicotinamide (final concentration 10 mM) in 50 μL stop buffer (100 mM HEPES (pH 7.5), 10 mM EDTA, 0.25% CR-3). The samples were analyzed using a LabChip EZ Reader II (PerkinElmer, Waltham, MA, USA). Percent conversion was defined as 100 × P / (P + S), where P and S are peak heights of the product and peptide substrate, respectively. The IC50 values were determined as means with standard deviation calculated from at least three independent dose–response curves using Origin software (OriginLab, Northampton, MA, USA).

MT-2 = test: MTT assay, MT-2 cells; assay type: cell-based, human; conditions: leukemic cells
Source text: (§1) Next, the three active compounds (STC4, STC9, and STC11) were utilized for a cell-based assay to explore their potential antiproliferative effect against different cancer cell lines, including MCF7 (breast cancer), HeLa (cervical cancer), and different genotypes of leukemic cells (K562, MT-2, and HL-60) using an MTT assay. […] In general, STC11 cellular activity was less than STC4 and STC9. This may be explained by the lower cellular permeability due to the presence of the more polar hydrazide group.
(§2) HeLa human cervical carcinoma cell lines were incubated in Dulbecco’s modified Eagle’s medium. MCF-7 human breast cancer, leukemic (K562, HL-60, MT-2, and Jurkat), and normal blood (PBMC) (Precision Bioservices, Frederic, MD, USA) cells were incubated in RPMI1640 medium. All media (Wako, Osaka, Japan) were supplemented with 10% fetal bovine serum (Sigma-Aldrich, St. Louis, MO, USA) and 89 μg/mL streptomycin (Meiji Seika, Tokyo, Japan) at 37 °C in a humidified atmosphere of 95% air and 5% CO2. Exponentially growing cells were cultured in 24-well and 96-well plates (Iwaki brand Asahi Glass, Tokyo, Japan) at 2 × 10^4 cells/mL and 1 × 10^6 cells/mL, respectively, for 96 h before the addition of drugs (optimum cell number for cytotoxicity assays was determined in preliminary experiments). Stock solutions of compounds in concentrations between 0.01–10 mM were prepared in dimethyl sulfoxide (DMSO; Wako, Osaka, Japan) and further dilution was made with fresh culture medium. The concentration of DMSO in the final culture medium was 1%, which had no effect on cell viability.
(§3) The level of cellular MTT (Dojindo, Kumamoto, Japan) reduction was quantified as described previously […] At the end of this period, cells were stained with MTT solution and incubated for an additional 4 h at 37 °C. After the medium was removed, the formazan crystals were solubilized by addition of 100 μL DMSO to each well, and absorbance was determined using an Infinitive M1000 plate reader (Tecan, Mannedorf, Switzerland) at a wavelength of 550 nm with background subtraction at 630 nm. Every concentration was repeated in three wells, and IC50 values were calculated from MTT results and defined as the drug concentrations that reduced absorbance to 50% of the control values.

HL-60 = test: MTT assay, HL-60 cells; assay type: cell-based, human; conditions: leukemic cells
Source text: as §1, §2, §3

K562 = test: MTT assay, K562 cells; assay type: cell-based, human; conditions: leukemic cells
Source text: as §1, §2, §3

HeLa = test: MTT assay, HeLa cells; assay type: cell-based, human; conditions: 96 h exposure, cervical cancer
Source text: as §1, §2, §3

MCF-7 = test: MTT assay, MCF-7 cells; assay type: cell-based, human; conditions: breast cancer
Source text: as §1, §2, §3

NCI 60 tumor cell line = system: NCI 60 tumor cell line; set-up: method as in doi:10.1002/ddr.430340203; conditions: NCI 60 tumor cell line screen; cited from earlier work
plasmid DNA (pUC19 DNA) = test: DNA cleavage assay with plasmid DNA; conditions: 1 μM concentration, 37 °C, 2 h, with and without iron (II), H2O2, ascorbic acid
Description: We then tested DNA cleavage as a possible molecular mechanism for cytotoxicity of the tested compounds using plasmid DNA (pUC19 DNA) witH- and without iron (II), H2O2, and ascorbic acid complex (Figure 3). The DNA cleavage reaction was carried out by incubating the reaction mixture at 37 °C for 2 h, and electrophoresis was performed. After electrophoresis, the DNA was stained with ethidium bromide, and the bands were visualized by exposure to ultraviolet radiation and recorded using an electronic camera. […] Furthermore, these compounds may activate oxygen in the cytoplasm. This may explain their high cellular cytotoxic activity owing to a dual effect combining SIRT2 inhibition and DNA cleavage.
The DNA cleavage assays were performed as described previously. Intensity of the bands was quantitated using ImageJ software (NIH, Bethesda, MD, USA).
Figure 3 The inhibitory effects of selected compounds on DNA cleavage in the presence and absence of FeSO4, H2O2, and ascorbic acid. (A) Form I (supercoil), form II (single strand break), and form III (double strand break) bands after electrophoresis. The Form I band is the lower and the Form II band is the upper portion. The pUC19 enzyme cut (by EcoR I) generates form III with mid mobility (the second lane from the left). (B) Relative intensity of form I and form II bands.

[1] = Homo sapiens, MT2, 96 h exposure
[2] = Homo sapiens, HL-60, 96 h exposure
[3] = Homo sapiens, K562, 96 h exposure
[4] = Homo sapiens, MCF7, 96 h exposure

- IC50 (SIRT2): > 100 µM
SMILES: COC(=O)[C@H](CSC(c1ccccc1)(c1ccccc1)c1ccccc1)NCc1ccc(N(C)C)cc1Cl [STC5, Methyl N-(2-chloro-4-(dimethylamino)benzyl)-S-trityl-L-cysteinate]

- IC50 (HL-60; [2]): 450 ± 50 nM
- IC50 (SIRT2): 10.8 ± 1.9 µM
- fold decrease in SIRT2 inhibition activity compared with TH-3 (SIRT2; vs TH-3): 10 fold
- IC50 (K562; [3]): 2170 ± 250 nM
- IC50 (HeLa; Homo sapiens, HeLa): 1560 ± 170 nM
- IC50 (MCF-7; [4]): 3.16 ± 0.26 µM
SMILES: COC(=O)[C@H](CSC(c1ccccc1)(c1ccccc1)c1ccccc1)NCc1cc(N(C)C)ccn1 [STC4, Methyl N-((4-(dimethylamino)pyridin-2-yl)methyl)-S-trityl-L-cysteinate]
- IC50 (MT-2; [1]): 3.15 ± 0.13 µM

- IC50 (SIRT2): > 100 µM
SMILES: COC(=O)[C@H](CSC(c1ccccc1)(c1ccccc1)c1ccccc1)NCc1ccc(N(C)C)cc1 [STC3, Methyl N-(4-(dimethylamino)benzyl)-S-trityl-L-cysteinate]

- SIRT2 inhibition activity (in words) (SIRT2): no activity
- IC50 (SIRT2): > 100 µM
SMILES: COC(=O)[C@H](CSC(c1ccccc1)(c1ccccc1)c1ccccc1)NC(=O)c1cc(N(C)C)ccn1 [STC10, Methyl N-(4-(dimethylamino)picolinoyl)-S-trityl-L-cysteinate]

- IC50 (HL-60; [2]): 12800 ± 950 nM
- IC50 (SIRT2): 9.5 ± 1.2 µM
- IC50 (K562; [3]): 15000 ± 1170 nM
- IC50 (HeLa; Homo sapiens, HeLa): 7950 ± 810 nM
- IC50 (MCF-7; [4]): 10 ± 1.12 µM
SMILES: CN(C)c1ccnc(CN[C@H](CSC(c2ccccc2)(c2ccccc2)c2ccccc2)C(=O)NN)c1 [STC11, (S)-2-(((4-(dimethylamino)pyridin-2-yl)methyl)amino)-3-(tritylthio)propanehydrazide]
- IC50 (MT-2; [1]): 16.8 ± 1.04 µM

- IC50 (HL-60; [2]): 1190 ± 90 nM
- IC50 (SIRT2): 17.2 ± 1.2 µM
- IC50 (K562; [3]): 2530 ± 310 nM
- IC50 (HeLa; Homo sapiens, HeLa): 2720 ± 190 nM
- IC50 (MCF-7; [4]): 3.32 ± 0.41 µM
SMILES: CCN(CC)c1ccnc(CN[C@@H](CSC(c2ccccc2)(c2ccccc2)c2ccccc2)C(=O)OC)c1 [STC9, Methyl N-((4-(diethylamino)pyridin-2-yl)methyl)-S-trityl-L-cysteinate]
- IC50 (MT-2; [1]): 2.55 ± 0.28 µM
- DNA cleavage effect (plasmid DNA (pUC19 DNA)): strongest DNA cleavage effect

- SIRT2 inhibition activity (in words) (SIRT2): devoid of SIRT2 inhibition activity
- IC50 (SIRT2): > 100 µM
SMILES: COC(=O)[C@H](CSC(c1ccccc1)(c1ccccc1)c1ccccc1)NCc1ccccn1 [STC8, Methyl N-(pyridin-2-ylmethyl)-S-trityl-L-cysteinate]

- IC50 (SIRT2): > 100 µM
SMILES: COC(=O)[C@H](CSC(c1ccccc1)(c1ccccc1)c1ccccc1)NCc1ccc(N(C)C)cc1OC [STC6, Methyl N-(2-methoxy-4-(dimethylamino)benzyl)-S-trityl-L-cysteinate]

More lines, now with the values behind:

SMILES: CCN(CC)c1ccnc(CN[C@H](Cc2cn(C(c3ccccc3)(c3ccccc3)c3ccccc3)cn2)C(=O)OC)c1 [TH-3, reference compound]
- IC50 (MT-2; [1]): 0.17 ± 0.02 µM
- IC50 (HL-60; [2]): 280 ± 40 nM
- IC50 (SIRT2): 1.3 ± 0.2 µM
- IC50 (K562; [3]): 300 ± 20 nM
- IC50 (HeLa; Homo sapiens, HeLa): 370 ± 40 nM
- IC50 (MCF-7; [4]): 0.71 ± 0.08 µM

SMILES: N[C@@H](CSC(c1ccccc1)(c1ccccc1)c1ccccc1)C(=O)O [STLC, S-trityl-L-cysteine]
- half maximal tumor growth inhibition concentration (NCI 60 tumor cell line): 1.3 µM

SMILES: COC(=O)[C@H](CSC(c1ccccc1)(c1ccccc1)c1ccccc1)NCc1cnc2ccccc2c1 [STC7, Methyl N-(quinolin-3-ylmethyl)-S-trityl-L-cysteinate]
- IC50 (SIRT2): > 100 µM

SMILES: CCN(CC)c1ccc(CN[C@@H](CSC(c2ccccc2)(c2ccccc2)c2ccccc2)C(=O)OC)cc1 [STC2, Methyl N-(4-(diethylamino)benzyl)-S-trityl-L-cysteinate]
- IC50 (SIRT2): > 100 µM

SMILES: COC(=O)C(N)CSC(c1ccccc1)(c1ccccc1)c1ccccc1 (stereo in doubt) [Compound 1, S-Trityl-L-Cysteine Methyl Ester Hydrochloride]
- SIRT2 inhibition activity (in words) (SIRT2): inactive
- IC50 (SIRT2): > 100 µM

SMILES: Cc1cc(C)nc(SCC(=O)Nc2ncc(Cc3cccc4ccccc34)s2)n1 [SirReal2, reference compound]
- IC50 (MT-2; 96 h exposure): 17.9 ± 1.52 µM
- IC50 (HL-60; 96 h exposure): 90600 ± 8770 nM
- IC50 (K562; 96 h exposure): 13600 ± 440 nM
- IC50 (HeLa): 10400 ± 940 nM
- IC50 (MCF-7; 96 h exposure): 17.1 ± 2.15 µM

SMILES: COC(=O)[C@H](CSC(c1ccccc1)(c1ccccc1)c1ccccc1)NCc1cccc(Br)n1 [STC1, Methyl N-((6-bromopyridin-2-yl)methyl)-S-trityl-L-cysteinate]
- IC50 (SIRT2): > 100 µM
